Results as given in patent publication US6664290B1, “Oral or vaginal administration of mesoprostol in third stage labor” (University College London, priority 1994, dated 2003).
Where two headings read alike, the source gives them in different places.

How the values were obtained:
[1] = cited from earlier work; for Time of peak plasma levels: oral, substantially the same if administered vaginally
[2] = tested on: women in the third stage of labour; type: in vivo
Source text: The study protocol was reviewed and approved by the local Ethics Committee. Information sheets explaining the aims of the trial were distributed to potential participants either in the antenatal classes, antenatal clinics, and the Day Assessment Area. On admission to labour ward women were reminded about the trial and a written informed consent was obtained if they still wished to participate in the study.
The main objective of this study was to estimate the incidence of primary postpartum haemorrhage (PPH). This was defined as estimated blood loss of or more than 500 ml. Other measures of blood loss were also considered e.g. severe PPH i.e. >1000 ml; secondary PPH (after 24 hours); need for blood transfusion; use of therapeutic oxytocics (i.e. the need for extra oxytocics); length of third stage; incidence of manual removal of placenta; the need for subsequent evacuation of the retained products of conception; and the change in haemoglobin and packed cell volume in those who had instrumental delivery and/or who had blood loss of 500 ml or more compared to the Haemoglobin done late in pregnancy. Potential adverse effects of the drug used were also recorded e.g. incidence of vomiting, diarrhoea, shivering and hypertension (defined as diastolic blood pressure >100 or Systolic Blood pressure >150). All of these measures were documented by the midwife on call on a specially designed form with demographic information and information related to the type and circumstances of delivery.
The principle criteria for exclusion were: placenta praevia, multiple pregnancy, intrauterine death, gestational age less than 32 weeks gestation, women with previous PPH and women in their sixth pregnancy or more. In this pilot study, women with hypertension, preeclampsia or pregnancy induced hypertension were also excluded.
Syntometrine was not given but midwives were instructed to do so if they felt there was a clinical indication. Otherwise the delivery of the placenta was managed according to hospital policy (active management policy). Blood loss was estimated clinically by the attendant midwife or obstetrician. A sample of venous blood was obtained two days later after birth for haemoglobin and packed cell volume assessment from women who had instrumental delivery or from those who had blood loss of 500 ml or more. A record was kept of the last recorded blood pressure and temperature before birth and one hour after delivery.
Categorical variables are summarised as numbers and percentages, whereas continuous variables that are normally distributed are presented as means and standard deviations (SD), continuous variables that are not normally distributed are presented as medians and interquartile ranges (IQR). Comparisons between the systolic, diastolic blood pressure, haemoglobin, haematocrit and temperature before and after delivery were conducted via the paired t-test. Association between two categorical variables was assessed via Chi-square testing. The significance level was set to the 5% level.

blood pressure [3] = assay: Blood pressure effect of Misoprostol in humans; type: in vivo, human; conditions: administered to humans; dosages up to 800 μg
blood pressure [4] = conditions: animal studies; about 800 μg in a single dose; cited from earlier work
blood pressure [5] = conditions: patients; about 400 μg; cited from earlier work
[6] = tested on: uterus (uterotonic contraction); conditions: intramuscular route, as part of Syntometrine; cited from earlier work
[7] = after delivery (one hour), 600 μg oral, n = 184
[8] = after minus before delivery, n = 184
[9] = before delivery (last recorded, before drug), n = 184
[10] = one hour after delivery vs last measured before delivery, not statistically significant

## CCCCC(C)(O)C/C=C/[C@H]1[C@H](O)CC(=O)[C@@H]1CCCCCCC(=O)O (mixture of isomers) [Misoprostol acid]
[1]
  Time of peak plasma levels: less than fifteen

## CCCCC(C)(O)C/C=C/[C@H]1[C@H](O)CC(=O)[C@@H]1CCCCCCC(=O)OC (mixture of isomers) [Misoprostol]
[2]; 600 μg Misoprostol orally immediately after delivery, n = 237
  Number with blood loss >= 500 ml: 13
[2]; 600 μg oral
  Cases of infection: no cases
  Incidence of shivering: patients who had epidural anaesthesia vs those who had not: no significant difference
  Incidence of vomiting relative to that reported when syntometrine is used: almost half
[2]; 600 μg oral, n = 237
  % with blood loss > 1000 ml: (0%)
  % with blood loss greater than 500: 3%
  % with diastolic - 100 (mm Hg): (0%)
  % with haemoglobin < 9 (g/l): (2%)
  % with systolic - 150 (mm Hg): (1%)
  % with third stage length >= 30 minutes: (0.5%)
  Median (IQR) of blood loss: 200 mL
  Median (IQR) third stage length: 5 min
  Number who had shivering: 148
  Number with blood loss > 1000 ml: 0
  Number with blood loss greater than 500: 6
  Number with diastolic - 100 (mm Hg): 0
  Number with haemoglobin < 9 (g/l): 4
  Number with manual removal of placenta: 4
  Number with repeat syntometrine injection: 12
  Number with systolic - 150 (mm Hg): 2
  Number with third stage length >= 30 minutes: 1
  Patients for whom blood transfusion was required: 2 patients
[2]; 600 μg oral, n = 237, first 24 hours after delivery
  Number who had diarrhoea (loose stool): 7
[2]; 600 μg oral, n = 237, first hour after delivery
  Number who vomited: 19
[2]; 600 μg oral, self-limiting, twenty minutes after swallowing the tablets
  Duration of shivering: 10 to 15 min
[2]; after delivery (one hour), 600 μg oral, n = 182
  Temperature, mean: 37.1 C.
[2]; [7]
  Diastolic blood pressure, mean: 73.0 mm Hg
  Systolic blood pressure, mean: 118.4 mm Hg
[2]; after delivery, 600 μg oral, n = 73
  Haematocrit, mean: 0.33
[2]; after minus before delivery, n = 73
  Haematocrit, mean difference: −0.01
[2]; after minus before delivery, n = 182
  Temperature, mean difference (increase): 0.5 C.
[2]; [8]
  Diastolic blood pressure, mean difference: −0.8 mm Hg
  Systolic blood pressure, mean difference: −1.0 mm Hg
[2]; [9]
  Diastolic blood pressure, mean: 73.8 mm Hg
  Systolic blood pressure, mean: 119.3 mm Hg
[2]; before delivery, n = 73
  Haematocrit, mean: 0.34
[2]; before delivery, n = 182
  Temperature, mean: 36.6 C.
[2]; [10]
  Mean reduction of diastolic blood pressure (SE): 0.8 (0.6) mm Hg
  Mean reduction of systolic blood pressure (SE): 1.0 (SE=0.9) mm Hg
[2]; women who were normotensive before labour, 600 μg oral
  Hypertensive effects: could not identify any hypertensive effects
Blood pressure [3]
  Hypertensive effect: not hypertensive
[1]; extensive metabolism during and/or prior to gastro intestinal absorption
  Unchanged drug in the plasma or urine after use: no unchanged drug is detected
[1]
  Time of peak plasma levels: less than fifteen
Blood pressure [4]
  Effect on blood pressure: mild hypotensive effect
Blood pressure [5]
  Effect on blood pressure: substantially normotensive

## CC[C@H](C)[C@@H]1NC(=O)[C@H](Cc2ccc(O)cc2)NC(=O)[C@@H](N)CSSC[C@@H](C(=O)N2CCC[C@H]2C(=O)N[C@@H](CC(C)C)C(=O)NCC(N)=O)NC(=O)[C@H](CC(N)=O)NC(=O)[C@H](CCC(N)=O)NC1=O [syntocinon]
[6]
  Time to action: about 2.5 minutes
